# According to PubChem BioAssay AID330 (DTP/NCI, 2004):
# Values joined by “and” are separate entries in the source; they are usually repeats but may differ in a detail not shown here. Identical values can stand only once. Inconclusive results and toxic doses are left out.
# Test system: P388 leukemia ip, CD2F1 mice, survival T/C
# Assay: NCI In Vivo Anticancer Drug Screen. Data for tumor model P388 Leukemia (intraperitoneal) in CD2F1 (CDF1) mice
# Conditions: endpoint: median survival time, higher = longer survival
# In short: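 Mice carrying the transplanted tumor received test compound or vehicle. Survival was recorded in each group, and the value is the treated-group measurement divided by that of the vehicle-treated control group.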
# [1] = dose: 50.0 mg/kg/injection, schedule: Q01DX005 (ip), vehicle: saline with Tween-80
# [2] = dose: 100.0 mg/kg/injection, schedule: Q01DX005 (ip), vehicle: saline with Tween-80
# [3] = dose: 200.0 mg/kg/injection, schedule: Q01DX005 (ip), vehicle: saline with Tween-80
# [4] = dose: 50.0 mg/kg/injection, schedule: Q01DX009 (ip), vehicle: saline
# [5] = dose: 50.0 mg/kg/injection, schedule: Q01DX009 (ip), vehicle: suspension in saline
# [6] = dose: 200.0 mg/kg/injection, schedule: Q01DX009 (ip), vehicle: saline
# [7] = dose: 50.0 mg/kg/injection, schedule: Q01DX009 (ip), vehicle: Klucel (hydroxypropylcellulose) (HPC)
# [8] = dose: 100.0 mg/kg/injection, schedule: Q01DX009 (ip), vehicle: Klucel (hydroxypropylcellulose) (HPC)
smiles,measurement,setting,value
CN1CC2CCCCN2CC(Cc2ccccc2)([N+](=O)[O-])C1 (configuration not stated),T/C,"dose: 100.0 mg/kg/injection, schedule: Q04DX002 (ip), vehicle: saline",109 % of control
same,T/C,"dose: 200.0 mg/kg/injection, schedule: Q04DX002 (ip), vehicle: saline",109 % of control
O=C(CCCC(=O)Nc1ccc2c(=O)c3ccccc3[nH]c2c1)Nc1ccc2c(=O)c3ccccc3[nH]c2c1,T/C,[1],98 % of control
same,T/C,[2],104 % of control
same,T/C,[3],100 % of control
Nc1ccc2[se]ccc2c1,T/C,"dose: 12.5 mg/kg/injection, schedule: Q01DX009 (ip), vehicle: suspension in saline",105 % of control
same,T/C,"dose: 25.0 mg/kg/injection, schedule: Q01DX009 (ip), vehicle: suspension in saline",100 % of control
same,T/C,[4],91 % of control
same,T/C,[5],100 % of control
same,T/C,[6],100 % of control
C=CC(C)(O)CS(=O)(=O)c1ccccc1 (configuration not stated),T/C,[4],93 % of control
same,T/C,"dose: 100.0 mg/kg/injection, schedule: Q01DX009 (ip), vehicle: saline",101 % of control
same,T/C,[6],101 % of control
COC1(OC)OC2=C(OC1(OC)OC)c1ccccc1C2=O,T/C,"dose: 7.5 mg/kg/injection, schedule: Q01DX005 (ip), vehicle: Klucel (hydroxypropylcellulose) (HPC)",114 % of control
same,T/C,"dose: 15.0 mg/kg/injection, schedule: Q01DX005 (ip), vehicle: Klucel (hydroxypropylcellulose) (HPC)",114 % of control and 122 % of control
same,T/C,"dose: 30.0 mg/kg/injection, schedule: Q01DX005 (ip), vehicle: Klucel (hydroxypropylcellulose) (HPC)",114 % of control and 115 % of control
same,T/C,"dose: 60.0 mg/kg/injection, schedule: Q01DX005 (ip), vehicle: Klucel (hydroxypropylcellulose) (HPC)",111 % of control and 115 % of control (2×)
O=C(Nc1ccc(Cl)cc1)Nc1ccc(Cl)nn1,T/C,"dose: 3.12 mg/kg/injection, schedule: Q04DX002 (ip), vehicle: Klucel (hydroxypropylcellulose) (HPC)",101 % of control
same,T/C,"dose: 6.25 mg/kg/injection, schedule: Q04DX002 (ip), vehicle: Klucel (hydroxypropylcellulose) (HPC)",102 % of control
same,T/C,"dose: 12.5 mg/kg/injection, schedule: Q04DX002 (ip), vehicle: Klucel (hydroxypropylcellulose) (HPC)",98 % of control
same,T/C,"dose: 25.0 mg/kg/injection, schedule: Q04DX002 (ip), vehicle: Klucel (hydroxypropylcellulose) (HPC)",115 % of control
same,T/C,"dose: 50.0 mg/kg/injection, schedule: Q04DX002 (ip), vehicle: Klucel (hydroxypropylcellulose) (HPC)",90 % of control
same,T/C,"dose: 100.0 mg/kg/injection, schedule: Q04DX002 (ip), vehicle: Klucel (hydroxypropylcellulose) (HPC)",88 % of control and 95 % of control
NC(CCCCNC(=O)CCCCCCCCC(=O)NCCCCC(N)C(=O)O)C(=O)O (configuration not stated),T/C,[5],95 % of control
same,T/C,"dose: 100.0 mg/kg/injection, schedule: Q01DX009 (ip), vehicle: suspension in saline",105 % of control
same,T/C,"dose: 200.0 mg/kg/injection, schedule: Q01DX009 (ip), vehicle: suspension in saline",100 % of control
CCOC(=O)c1ccc(NN=NCCO)cc1,T/C,"dose: 12.5 mg/kg/injection, schedule: Q01DX009 (ip), vehicle: distilled water + Tween-80",97 % of control
same,T/C,"dose: 25.0 mg/kg/injection, schedule: Q01DX009 (ip), vehicle: distilled water + Tween-80",100 % of control
same,T/C,"dose: 50.0 mg/kg/injection, schedule: Q01DX009 (ip), vehicle: distilled water + Tween-80",100 % of control
same,T/C,"dose: 100.0 mg/kg/injection, schedule: Q01DX009 (ip), vehicle: distilled water + Tween-80",95 % of control
same,T/C,"dose: 200.0 mg/kg/injection, schedule: Q01DX009 (ip), vehicle: distilled water + Tween-80",118 % of control
CCCCCCCCOC(=O)c1ccccc1OP(=O)(N(C)C)N(C)C,T/C,"dose: 50.0 mg/kg/injection, schedule: Q01DX005 (ip), vehicle: saline",107 % of control
same,T/C,"dose: 100.0 mg/kg/injection, schedule: Q01DX005 (ip), vehicle: saline",112 % of control
same,T/C,"dose: 200.0 mg/kg/injection, schedule: Q01DX005 (ip), vehicle: saline",100 % of control
O=NNc1nc(-c2ccccc2)ns1,T/C,"dose: 1.56 mg/kg/injection, schedule: Q01DX009 (ip), vehicle: water",100 % of control
same,T/C,"dose: 3.12 mg/kg/injection, schedule: Q01DX009 (ip), vehicle: water",100 % of control and 101 % of control
same,T/C,"dose: 6.25 mg/kg/injection, schedule: Q01DX009 (ip), vehicle: water",104 % of control and 97 % of control
same,T/C,"dose: 12.5 mg/kg/injection, schedule: Q01DX009 (ip), vehicle: water",100 % of control and 97 % of control
same,T/C,"dose: 25.0 mg/kg/injection, schedule: Q01DX009 (ip), vehicle: water",101 % of control and 97 % of control
same,T/C,"dose: 50.0 mg/kg/injection, schedule: Q01DX009 (ip), vehicle: water",100 % of control
COc1ccc(C2=C[P+](c3ccccc3)(c3ccccc3)C=C(c3ccccc3)O2)cc1,T/C,"dose: 0.75 mg/kg/injection, schedule: Q01DX005 (ip), vehicle: saline with Tween-80",100 % of control and 110 % of control
same,T/C,"dose: 0.75 mg/kg/injection, schedule: Q01DX005 (ip), vehicle: saline",120 % of control
same,T/C,"dose: 1.5 mg/kg/injection, schedule: Q01DX005 (ip), vehicle: saline with Tween-80",108 % of control and 119 % of control
same,T/C,"dose: 1.5 mg/kg/injection, schedule: Q01DX005 (ip), vehicle: saline",110 % of control
same,T/C,"dose: 3.0 mg/kg/injection, schedule: Q01DX005 (ip), vehicle: saline with Tween-80",110 % of control and 120 % of control
same,T/C,"dose: 3.0 mg/kg/injection, schedule: Q01DX005 (ip), vehicle: saline",120 % of control
same,T/C,"dose: 3.12 mg/kg/injection, schedule: Q01DX005 (ip), vehicle: saline with Tween-80",114 % of control
same,T/C,"dose: 6.0 mg/kg/injection, schedule: Q01DX005 (ip), vehicle: saline with Tween-80",111 % of control
same,T/C,"dose: 6.25 mg/kg/injection, schedule: Q01DX005 (ip), vehicle: saline with Tween-80",118 % of control
C=CC(=NC(C)(C)C)Nc1ccccc1Cl,T/C,"dose: 3.12 mg/kg/injection, schedule: Q01DX009 (ip), vehicle: Klucel (hydroxypropylcellulose) (HPC)",104 % of control
same,T/C,"dose: 6.25 mg/kg/injection, schedule: Q01DX009 (ip), vehicle: Klucel (hydroxypropylcellulose) (HPC)",103 % of control
same,T/C,"dose: 6.25 mg/kg/injection, schedule: Q01DX009 (ip), vehicle: saline",116 % of control
same,T/C,"dose: 12.5 mg/kg/injection, schedule: Q01DX009 (ip), vehicle: Klucel (hydroxypropylcellulose) (HPC)",102 % of control
same,T/C,"dose: 12.5 mg/kg/injection, schedule: Q01DX009 (ip), vehicle: saline",118 % of control and 93 % of control
same,T/C,"dose: 25.0 mg/kg/injection, schedule: Q01DX009 (ip), vehicle: saline",111 % of control
COC1=CC(=Nc2ccc(N(CCCl)CCCl)cc2)C=CC1=O,T/C,"dose: 25.0 mg/kg/injection, schedule: Q01DX009 (ip), vehicle: Klucel (hydroxypropylcellulose) (HPC)",159 % of control
same,T/C,[7],151 % of control and 154 % of control
same,T/C,[8],159 % of control and 174 % of control
O=C(CN1C(=O)c2ccccc2C1=O)C(O)CN1C(=O)c2ccccc2C1=O (configuration not stated),T/C,[1],94 % of control
same,T/C,[2],94 % of control
same,T/C,[3],100 % of control
CC(C)(C)C1CC=CCC1 (configuration not stated),T/C,"dose: 50.0 mg/kg/injection, schedule: Q01DX009 (ip), vehicle: saline sonified",109 % of control
same,T/C,"dose: 100.0 mg/kg/injection, schedule: Q01DX009 (ip), vehicle: saline sonified",100 % of control
COc1c2c(c(OC)c3c1C(=O)c1ccccc1C3=O)C(=O)CCC2,T/C,"dose: 30.0 mg/kg/injection, schedule: Q01DX005 (ip), vehicle: saline with Tween-80",93 % of control
same,T/C,"dose: 60.0 mg/kg/injection, schedule: Q01DX005 (ip), vehicle: saline with Tween-80",91 % of control
same,T/C,"dose: 120.0 mg/kg/injection, schedule: Q01DX005 (ip), vehicle: saline with Tween-80",87 % of control
same,T/C,"dose: 240.0 mg/kg/injection, schedule: Q01DX005 (ip), vehicle: saline with Tween-80",88 % of control
COc1cc2cnc(-c3ccncc3)cc2cc1OC,T/C,"dose: 100.0 mg/kg/injection, schedule: Q04DX003 (ip), vehicle: saline",95 % of control
same,T/C,"dose: 200.0 mg/kg/injection, schedule: Q04DX003 (ip), vehicle: saline",108 % of control
C=C1C(=O)C2=CC1CCC(=O)C1(C)C(OC(C)=O)CC(OC(C)=O)C(C)(C)C1CC2O (configuration not stated),T/C,"dose: 17.5 mg/kg/injection, schedule: Q01DX005 (ip), vehicle: Klucel (hydroxypropylcellulose) (HPC)",108 % of control
same,T/C,"dose: 35.0 mg/kg/injection, schedule: Q01DX005 (ip), vehicle: Klucel (hydroxypropylcellulose) (HPC)",109 % of control
same,T/C,"dose: 70.0 mg/kg/injection, schedule: Q01DX005 (ip), vehicle: Klucel (hydroxypropylcellulose) (HPC)",111 % of control
O=C1OC(C(Cl)(Cl)Cl)NC1Cc1ccccc1 (configuration not stated),T/C,"dose: 50.0 mg/kg/injection, schedule: Q01DX009 (ip), vehicle: saline with Tween-80",107 % of control
same,T/C,"dose: 100.0 mg/kg/injection, schedule: Q01DX009 (ip), vehicle: saline with Tween-80",103 % of control
same,T/C,"dose: 200.0 mg/kg/injection, schedule: Q01DX009 (ip), vehicle: saline with Tween-80",110 % of control
CC1(C)C=C(C(=O)ON2C(=O)CCC2=O)C(C)(C)N1O,T/C,[7],113 % of control
same,T/C,[8],106 % of control
